“And” between values parts separate entries of the source, which are not always exact repeats. Identical values can stand only once. Results filed as inconclusive are left out.
Test system: BDF1 mice, s.c. Lewis lung carcinoma, T/C %
Assay: NCI In Vivo Anticancer Drug Screen. Data for tumor model Lewis Lung Carcinoma (subcutaneous) in B6D2F1 (BDF1) mice
Summary of the method: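 First, mice carry a transplantable tumor. Next, groups receive either compound or vehicle. Finally, survival or tumor dimensions in the dosed animals are divided by the corresponding control figure.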

[1] = endpoint: median survival time, dose: 0.05 mg/kg/injection, schedule: Q01DX009 (ip), vehicle: saline, higher = longer survival
[2] = endpoint: median survival time, dose: 0.1 mg/kg/injection, schedule: Q01DX009 (ip), vehicle: saline, higher = longer survival
[3] = endpoint: median survival time, dose: 0.2 mg/kg/injection, schedule: Q01DX009 (ip), vehicle: saline, higher = longer survival

## C1CN1c1nc(N2CC2)nc(N2CC2)n1
endpoint: mean tumor weight, dose: 0.25 mg/kg/injection, schedule: Q01DX011 (ip), vehicle: saline, higher = larger tumour
  T/C: 72 % of control and 80 % of control
endpoint: mean tumor weight, dose: 0.5 mg/kg/injection, schedule: Q01DX011 (ip), vehicle: saline, higher = larger tumour
  T/C: 44 % of control and 46 % of control
[1]
  T/C: 96 % of control and 113 % of control
[2]
  T/C: 92 % of control and 106 % of control
endpoint: median survival time, dose: 0.12 mg/kg/injection, schedule: Q01DX009 (ip), vehicle: saline, higher = longer survival
  T/C: 118 % of control
endpoint: median survival time, dose: 0.13 mg/kg/injection, schedule: Q01DX009 (ip), vehicle: saline, higher = longer survival
  T/C: 90 % of control
[3]
  T/C: 100 % of control
endpoint: median survival time, dose: 0.4 mg/kg/injection, schedule: Q01DX009 (ip), vehicle: saline, higher = longer survival
  T/C: 89 % of control and 104 % of control
endpoint: median survival time, dose: 0.5 mg/kg/injection, schedule: Q01DX009 (ip), vehicle: saline with Tween-80, higher = longer survival
  T/C: 123 % of control
endpoint: median survival time, dose: 0.5 mg/kg/injection, schedule: Q08DX002 (ip), vehicle: saline with Tween-80, higher = longer survival
  T/C: 102 % of control
endpoint: median survival time, dose: 0.5 mg/kg/injection, schedule: Q08DX002 (ip), vehicle: saline, higher = longer survival
  T/C: 92 % of control and 111 % of control and 123 % of control
endpoint: median survival time, dose: 1.0 mg/kg/injection, schedule: Q08DX002 (ip), vehicle: saline with Tween-80, higher = longer survival
  T/C: 119 % of control
endpoint: median survival time, dose: 2.0 mg/kg/injection, schedule: Q08DX002 (ip), vehicle: saline with Tween-80, higher = longer survival
  T/C: 115 % of control
endpoint: median survival time, dose: 2.0 mg/kg/injection, schedule: Q08DX002 (ip), vehicle: saline, higher = longer survival
  T/C: 155 % of control
endpoint: median survival time, dose: 4.0 mg/kg/injection, schedule: Q08DX002 (ip), vehicle: saline, higher = longer survival
  T/C: 93 % of control
endpoint: median survival time, dose: 250.0 micrograms/kg/injection, schedule: Q01DX009 (ip), vehicle: saline, higher = longer survival
  T/C: 172 % of control
endpoint: median survival time, dose: 500.0 micrograms/kg/injection, schedule: Q01DX009 (ip), vehicle: saline, higher = longer survival
  T/C: 110 % of control
endpoint: median tumor weight (est.), dose: 0.12 mg/kg/injection, schedule: Q01DX009 (ip), vehicle: saline with Tween-80, higher = larger tumour
  T/C: 95 % of control
endpoint: median tumor weight (est.), dose: 0.25 mg/kg/injection, schedule: Q01DX009 (ip), vehicle: saline with Tween-80, higher = larger tumour
  T/C: 81 % of control
endpoint: median tumor weight (est.), dose: 0.5 mg/kg/injection, schedule: Q01DX009 (ip), vehicle: saline with Tween-80, higher = larger tumour
  T/C: 58 % of control
endpoint: median tumor weight (est.), dose: 0.5 mg/kg/injection, schedule: Q08DX002 (ip), vehicle: saline with Tween-80, higher = larger tumour
  T/C: 97 % of control
endpoint: median tumor weight (est.), dose: 1.0 mg/kg/injection, schedule: Q08DX002 (ip), vehicle: saline with Tween-80, higher = larger tumour
  T/C: 86 % of control
endpoint: median tumor weight (est.), dose: 2.0 mg/kg/injection, schedule: Q08DX002 (ip), vehicle: saline with Tween-80, higher = larger tumour
  T/C: 49 % of control

## CSc1ncc(Br)c(Sc2nc(N)nc3nc[nH]c23)n1
endpoint: mean tumor weight, dose: 5.0 mg/kg/injection, schedule: Q01DX011 (ip), vehicle: other, higher = larger tumour
  T/C: 57 % of control
endpoint: mean tumor weight, dose: 10.0 mg/kg/injection, schedule: Q01DX011 (ip), vehicle: other, higher = larger tumour
  T/C: 100 % of control
endpoint: mean tumor weight, dose: 20.0 mg/kg/injection, schedule: Q01DX011 (ip), vehicle: other, higher = larger tumour
  T/C: 65 % of control

## Nc1ncn(C2CC(O)C(CO)O2)c(=O)n1 (configuration not stated)
[1]
  T/C: 102 % of control
[2]
  T/C: 102 % of control and 109 % of control
[3]
  T/C: 109 % of control and 112 % of control
endpoint: median survival time, dose: 0.8 mg/kg/injection, schedule: Q01DX009 (ip), vehicle: Klucel (hydroxypropylcellulose) (HPC), higher = longer survival
  T/C: 167 % of control

## O=c1[nH]c(=O)n(C2CC(O)C(CO)O2)cc1C(F)(F)F (configuration not stated)
endpoint: median survival time, dose: 2.5 mg/kg/injection, schedule: Q01DX009 (ip), vehicle: saline, higher = longer survival
  T/C: 119 % of control
endpoint: median survival time, dose: 5.0 mg/kg/injection, schedule: Q01DX009 (ip), vehicle: saline, higher = longer survival
  T/C: 103 % of control
endpoint: median survival time, dose: 10.0 mg/kg/injection, schedule: Q01DX009 (ip), vehicle: saline, higher = longer survival
  T/C: 118 % of control

## C/C=C(\C)C(=O)O[C@@H]1c2cc3c(cc2-c2c(cc(OC)c(OC)c2OC)[C@@H]2C(=O)OC[C@@H]12)OCO3
endpoint: median survival time, dose: 1.25 mg/kg/injection, schedule: Q01DX009 (ip), vehicle: Klucel (hydroxypropylcellulose) (HPC), higher = longer survival
  T/C: 99 % of control
endpoint: median survival time, dose: 2.5 mg/kg/injection, schedule: Q01DX009 (ip), vehicle: Klucel (hydroxypropylcellulose) (HPC), higher = longer survival
  T/C: 110 % of control
endpoint: median survival time, dose: 5.0 mg/kg/injection, schedule: Q01DX009 (ip), vehicle: Klucel (hydroxypropylcellulose) (HPC), higher = longer survival
  T/C: 101 % of control

## CC(=O)OC(C)(C)/C=C/C(=O)[C@](C)(O)[C@H]1[C@H](O)C[C@@]2(C)[C@@H]3CC=C4[C@@H](CC[C@H](O)C4(C)C)[C@]3(CO)C(=O)C[C@]12C
endpoint: mean tumor weight, dose: 0.57 mg/kg/injection, schedule: Q01DX011 (ip), vehicle: saline, higher = larger tumour
  T/C: 67 % of control

Reference: PubChem BioAssay AID270 (DTP/NCI, 2004)
